From patent EP2102204B1, “NEW AMINOPYRROLO[1,2- A]INDOLE ET AMINOPYRIDAZINO[1,6-A]INDOLE DERIVATIVES, METHOD FOR PREPARING THE SAME AND PHARMACEUTICAL COMPOSITIONS CONTAINING THE SAME” (Les Laboratoires Servier, priority 2007, dated 2008)
Like-named read-outs stand apart in the source and are kept apart here.

How the values were obtained:
[1] = tested on: protéine tyrosine hydroxylase (TH); assay: Induction of tyrosine hydroxylase in the locus coeruleus of mice (immunodetection and image analysis of brain sections); assay type: in vivo, souris Balb/C; details: i.p. 20 mg/kg, single injection, 3 days after, % par rapport à la valeur moyenne du groupe témoin; for quantité de TH au niveau du LC, coupe 1: coupe 1 du LC (sens antérieur vers postérieur); for quantité de TH au niveau du LC, coupe 2: coupe 2 du LC (sens antérieur vers postérieur); for quantité de TH au niveau du LC, coupe 3: coupe 3 du LC (sens antérieur vers postérieur); for quantité de TH au niveau du LC, coupe 4: coupe 4 du LC (sens antérieur vers postérieur); for quantité de TH au niveau du LC, coupe 5: coupe 5 du LC (sens antérieur vers postérieur); for quantité de TH au niveau du LC, coupe 6: coupe 6 du LC (sens antérieur vers postérieur); for quantité de TH au niveau du LC, coupe 7: coupe 7 du LC (sens antérieur vers postérieur); for quantité de TH au niveau du LC, coupe 8: coupe 8 du LC (sens antérieur vers postérieur)
Source text: Il est recherché, parmi les dérivés, ceux qui sont capables d'induire une augmentation de la protéine tyrosine hydroxylase (TH) dans le cerveau de la souris Balb/C, au niveau du locus coeruleus (LC).
Les animaux utilisés sont des souris mâles de la lignée pure Balb/C (Charles River Laboratories), âgées de 7 à 8 semaines au moment du traitement.
Les souris reçoivent une injection unique par voie intrapéritonéale du composé à tester, dissous dans une solution d'HCl 0,04 M (contrôle correspondant : HCl […]) si le composé est suffisamment soluble, ou dans l'huile d'olive 90 % / DMSO 10 % (contrôle correspondant : huile d'olive 90 % / DMSO 10 %) pour les composés insolubles en milieu aqueux.
Trois jours après l'injection de chaque molécule, tous les animaux sont sacrifiés par décapitation. Les cerveaux extraits sont ensuite congelés dans de l'azote liquide et conservés à -80° C.
Des coupes coronales de 8 microns d'épaisseur sont pratiquées le long de l'axe postéro-antérieur du LC et fixées. Les coupes sont transférées sur membranes Immobilon-P. La TH est mesurée par immunodétection et analyse d'image.

[2] = Prediction of metabolic stability on liver microsomes; assay type: in vitro ADME; details: 10^-7 M, 0,33 mg prot/ml, NADPH, 0-60 minutes
Method: La prédiction de stabilité métabolique est testée par incubation des dérivés à la concentration de 10^-7 M en présence de microsomes hépatiques de souris, rat ou d'homme (0,33 mg prot/ml). Après addition de NADPH (nicotinamide adénine dinucléotide phosphate, forme réduite), des prélèvements sont réalisés à 0, 5, 15, 30 et 60 minutes. La réaction enzymatique est arrêtée avec le méthanol (VN). La protéine est précipitée par centrifugation et le surnageant analysé par LC-MS-MS. La bonne stabilité métabolique de ces dérivés permet d'envisager un traitement per os. TABLEAU III

[3] = tested on: récepteurs adrénergiques alpha (de type α2); assay: Receptor affinity, displacement of labelled specific ligand; assay type: binding; details: concentration 10^-5 M
Source text: (§1) L'affinité pour les récepteurs est déterminée selon les méthodes habituelles de relation entre le ligand spécifique et le récepteur, qui peut être d'origine animale ou un recombinant humain. Elle a été déterminée par la méthode du déplacement du ligand spécifique marqué par le composé étudié, et exprimée par la constante de dissociation Ki. L'affinité réceptorielle pour 28 récepteurs classiques a ainsi été étudiée. L'étude montre que l'induction de TH observée ne passe pas par une affinité vis-à-vis des récepteurs habituellement touchés par les produits psychotropes, comme les récepteurs adrénergiques alpha (de type α2), 5HT (de type 5HT2A), dopaminergiques (de type D1 et D2). Quelques dérivés montrent une affinité non négligeable pour les récepteurs sigma (σ) (ligand halopéridol) ou muscarinique (M). TABLEAU II

[4] = target: 5HT2A (Homo sapiens, UniProt P28223); assay: as above; assay type: binding
5HT2A, sequence (P28223 whole entry, species assumed): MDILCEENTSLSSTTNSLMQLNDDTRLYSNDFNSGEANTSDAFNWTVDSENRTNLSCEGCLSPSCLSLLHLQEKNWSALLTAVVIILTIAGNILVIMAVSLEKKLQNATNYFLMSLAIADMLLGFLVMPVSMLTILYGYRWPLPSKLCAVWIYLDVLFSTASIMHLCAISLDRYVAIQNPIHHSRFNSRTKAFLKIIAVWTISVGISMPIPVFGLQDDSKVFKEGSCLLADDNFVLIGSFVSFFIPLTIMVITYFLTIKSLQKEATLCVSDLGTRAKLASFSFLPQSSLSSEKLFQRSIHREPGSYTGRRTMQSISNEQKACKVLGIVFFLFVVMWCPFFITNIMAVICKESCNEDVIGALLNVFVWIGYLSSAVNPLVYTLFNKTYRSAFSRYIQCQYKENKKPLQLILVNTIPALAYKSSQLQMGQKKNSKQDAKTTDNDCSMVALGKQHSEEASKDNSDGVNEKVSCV
Source text: as §1

[5] = target: D1 (Homo sapiens, UniProt P21728); assay: as above; assay type: binding; details: concentration 10^-5 M
D1, sequence (P21728 whole entry): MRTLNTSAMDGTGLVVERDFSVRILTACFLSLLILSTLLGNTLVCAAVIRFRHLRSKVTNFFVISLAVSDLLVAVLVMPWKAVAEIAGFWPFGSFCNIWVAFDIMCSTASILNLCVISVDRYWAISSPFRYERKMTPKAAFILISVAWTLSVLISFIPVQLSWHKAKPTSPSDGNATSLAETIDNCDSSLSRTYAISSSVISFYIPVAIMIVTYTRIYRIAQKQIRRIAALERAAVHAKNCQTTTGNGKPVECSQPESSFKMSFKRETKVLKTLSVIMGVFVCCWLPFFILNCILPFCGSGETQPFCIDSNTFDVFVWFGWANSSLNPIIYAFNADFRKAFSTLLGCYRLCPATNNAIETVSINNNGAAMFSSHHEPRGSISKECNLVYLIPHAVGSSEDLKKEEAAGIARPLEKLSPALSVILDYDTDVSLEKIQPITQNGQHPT
Source text: as §1

[6] = tested on: récepteurs sigma (σ); assay: Receptor affinity, displacement of labelled specific ligand (haloperidol); assay type: binding
Source text: as §1

[7] = tested on: cellules endothéliales confluentes de capillaires bovins; assay: Prediction of blood-brain barrier passage (permeability across endothelial cell layer on filter); assay type: in vitro ADME; set-up: key: élevé; intermédiaire; faible; details: 20 µM; LC-MS-MS in lower compartment after 10, 20, 30, 40 et 60 minutes; result as class
Method: Les substances sont incubées à 20 µM dans le compartiment supérieur d'une double cuve séparé du compartiment inférieur soit par un filtre de polycarbonate seul, soit par le même filtre recouvert de cellules endothéliales confluentes de capillaires bovins. L'évaluation de la cinétique de perméabilité est réalisée par quantification LC-MS-MS de la substance inchangée dans le compartiment inférieur après 10, 20, 30, 40 et 60 minutes. Les dérivés testés présentent un passage généralement élevé de la BHE favorisant la cible neurologique. Les résultats sont rendus sous forme de classes : élevé, intermédiaire, faible. Ainsi, l'exemple 17 présente un passage élevé de la BHE.

[8] = read-out: % d'inhibition 5HT2A, concentration 10^-5 M

Compound | quantité de TH au niveau du LC, coupe 1 [1] [%] | quantité de TH au niveau du LC, coupe 2 [1] [%] | quantité de TH au niveau du LC, coupe 3 [1] [%] | quantité de TH au niveau du LC, coupe 4 [1] [%] | quantité de TH au niveau du LC, coupe 5 [1] [%] | quantité de TH au niveau du LC, coupe 6 [1] [%] | quantité de TH au niveau du LC, coupe 7 [1] [%] | quantité de TH au niveau du LC, coupe 8 [1] [%] | % de prédiction de stabilité métabolique sur microsomes hépatiques ([2]; Homme) [%] | % de prédiction de stabilité métabolique sur microsomes hépatiques ([2]; Rat) [%] | % de prédiction de stabilité métabolique sur microsomes hépatiques ([2]; Souris) [%] | % d'inhibition α2 [3] [%] | inhibition at 10 µM [4, 8] [%] | inhibition at 0.1 µM ([4]; read-out: % d'inhibition 5HT2A, concentration 10^-7 M) [%] | % d'inhibition D1 [5] [%] | % d'inhibition σ ([6]; concentration 10^-5 M) [%] | % d'inhibition σ ([6]; concentration 10^-7 M) [%] | inhibition at 10 µM ([4]; concentration 10^-5 M, read-out: % d'inhibition 5HT2A) [%] | inhibition at 10 µM ([5]; read-out: % d'inhibition D1) [%] | passage de la BHE [7]
O=C1NN2c3ccccc3C[C@H]2[C@@H]2NCCC[C@H]12 (racemic) [Exemple 8, (4aSR,11aSR, 11bRS)-1,2,3,4,4a,11,11a,11b-Octahydro-1,6,6a-triazabenzo[a]fluorén-5-one] | 59 | 61 | 59 | 50 | 33 | 17 | 9 | 5 | 80 | 52 | 86 |  |  |  |  |  |  |  |  | 
CN1CCC[C@@H]2C(=O)N3c4ccccc4C[C@H]3[C@@H]21 [Exemple 45, (4aS,11aS,11bR)-1-Méthyl-1,2,3,4,4a,11,11a,11b-octahydropyrido[2',3':3,4]pyrrolo[1,2-a]indol-5-one] |  |  |  |  |  |  |  |  |  |  |  | 23 | 92 | 13 | 49 |  |  |  |  | 
CN1CCC[C@@H]2C(=O)N3c4ccc(Cl)cc4C[C@H]3[C@@H]21 (racemic) [Exemple 27, (4aSR,11aSR,11bRS)-9-Chloro-1-méthyl-1,2,3,4,4a,11,11a,11b-octahydropyrido[2',3':3,4]pyrrolo[1,2-a]indol-5-one] | 55 | 67 | 54 | 46 | 26 | 29 | 3 | 5 |  |  |  | 10 | 84 |  |  | 10 |  |  |  | 
O=C1[C@H]2CCCN[C@@H]2[C@H]2Cc3ccccc3N12 (racemic) [Exemple 47, (4aSR,11aRS,11bSR)-1,2,3,4,4a,11,11a,11b-Octahydropyrido [2',3':3,4]pyrrolo[1,2-a]indol-5-one] |  |  |  |  |  |  |  |  | 86 | 85 | 99 |  |  |  |  |  |  |  |  | 
O=C1[C@H]2CCCN[C@H]2[C@@H]2Cc3cc(F)ccc3N12 (racemic) [Exemple 24, (4aSR,11aSR,11bRS)-9-Fluoro-1,2,3,4,4a,11,11a,11b-octahydropyrido[2',3':3,4]pyrrolo[1,2-a]indol-5-one] | 51 | 71 | 63 | 55 | 44 | 33 | 6 | 3 |  |  |  |  |  |  |  |  |  |  |  | 
C=CCN1CCC[C@@H]2C(=O)N3c4ccc(OC)cc4C[C@@H]3[C@H]21 (racemic) [Exemple 19, (4aSR,11aRS,11bSR)-1-Allyl-9-méthoxy-1,2,3,4,4a,11,11a,11b-octahydro-pyrido[2',3':3,4]pyrrolo[1,2-a]indol-5-one] | 49 | 48 | 55 | 50 | 21 | 15 | 6 | 9 |  |  |  |  |  |  |  | 36 | 10 |  |  | 
Cc1ccc2c(c1)CC1C3=C(CCCN3C)C(=O)N21 (racemic) [Exemple 40, (11aRS)-1,9-Diméthyl-1,2,3,4,11,11a-hexahydropyrido [2',3':3,4] pyrrolo[1,2-a]indol-5-one] | 72 | 96 | 66 | 66 | 58 | 34 | 39 | 4 |  |  |  |  |  |  |  |  |  |  |  | 
CN1CCC[C@@H]2C(=O)N3c4ccccc4C[C@H]3[C@@H]21 [Exemple 3, (4aSR, 11aSR, 11bRS)-1-Méthyl 1,2,3,4,4a,11,11a,11b-octahydropyrido[2'3':3,4]pyrrolo[1,2-a]indol-5-one] | 104 | 97 | 69 | 58 | 49 | 31 | 10 | 8 | 59 | 31 | 61 |  |  |  |  |  |  | 84 | 39 | 
CCCN1CC[C@H]2c3ccccc3N3NC(=O)C[C@@H]1[C@@H]23 (racemic) [Exemple 17, (3aRS,6aSR,10cRS)-4-Propyl 3a,4,5,6,6a,10c-hexahydro-3H-1,4,10b-triazafluoranthén-2-one] | 73 | 72 | 56 | 38 | 34 | 36 | 13 | 3 |  |  |  |  |  |  |  |  |  |  |  | élevé
